Experiment in all cases: NCI anticancer screen, dose series, 48 h
Test [1] concerns EKVX NSCLC.
Test [2] deals with A549 NSCLC.
In test [3] the test system is ACHN renal.
Test [4] relates to SF-268 CNS.
The subject of test [5] is MOLT-4 leukemia.
In test [6] the test system is HOP-62 NSCLC.
Test [7] has as its system HCC-2998 colon.
Test [8] relates to OVCAR-3 ovarian.
Test [9] relates to NCI-H460 lung.
Test [10] concerns OVCAR-4 ovarian.

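In this assay, cells in 96-well plates receive the compound at five concentrations for 48 hours. Endpoints are linearly interpolated between the surrounding concentrations. Here, GI50 denotes the concentration required for 50% inhibition of growth. At the TGI there is no net growth.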 Bounds are passed on as bounds.

As to `O=C(CCc1cc(O)cc(O)c1)NCCc1ccc(O)c(O)c1`, the TGI in test [1], in [2], in test [3], in [4], in test [5] and in test [6] was above 100 µM throughout. The TGI in test [7], in test [8] and in test [9] was above 100 µM in each case.
With `O=C1CCC2=C(CCC2)N1CCc1ccc2c(c1)OCO2`, the TGI in test [1], in test [2], in test [3], in test [10], in test [4] and in [5] was above 100 µM each time. Besides, the TGI in [6], in [7] and in test [9] was above 100 µM in each case.
`Cc1nnc(N)nc1/C=C\c1cccs1`: the TGI is 55.6 µM in test [1]; above 100 µM in test [2]; 33.1 µM in test [3]; 74.2 µM in [10]; 37.8 µM in [4]; above 100 µM in [5]. The TGI came out at 38.5 µM in test [6], 30.9 µM in [7] and 32.5 µM in [9].
For the molecule `O=C(NN=C1CCCCC1)Nc1ccccc1Cl`, the TGI in [1], in test [2], in test [3], in test [10], in test [4] and in [5] was above 100 µM each time. Moreover, the TGI in [7] was above 100 µM; in test [8] it was 38.8 µM; in test [9], above 100 µM.
For the molecule `C1OCN2c3nonc3N3COCN4c5nonc5N1C2C43` (centres undefined), the TGI in test [1], in [2], in [3], in [10], in test [4] and in test [5] was above 100 µM in each case. Moreover, the TGI in test [7], in [8] and in test [9] was above 100 µM throughout.
Consider `O=C(/C=C/c1cccs1)c1ccsc1`, for which the TGI in [1] is above 100 µM; in test [2], above 100 µM; in [3], 42.6 µM; in test [10], above 100 µM; in test [4], above 100 µM; in test [5], 40.6 µM. Besides, the TGI in test [6] was above 100 µM; in [7] it was 34.9 µM; in test [9], 60.4 µM.
Regarding `CN(C)CCCNC(=O)c1cc(NC(=O)c2cc(NC(=O)c3cc(NC(=O)CCCn4ccc(CO)c4CO)cn3C)cn2C)cn1C`, the TGI was above 100 µM in test [1]; 75.4 µM in [2]; above 100 µM in test [3]; above 100 µM in test [10]; above 100 µM in test [4]; above 100 µM in test [5]. For the same molecule, the TGI was above 100 µM in [7], 44.7 µM in [8] and above 100 µM in [9].
On to `Cc1ccc([N+](=O)[O-])cc1S(=O)(=O)Nc1ccc(C2=NN(c3ccc([N+](=O)[O-])cc3[N+](=O)[O-])C(c3ccccc3O)C2)cc1` (centres undefined), for which the TGI in test [1] is 90.6 µM; in test [2], above 100 µM; in test [3], above 100 µM; in [10], above 100 µM; in [4] it was above 100 µM; in test [5], above 100 µM. In addition, the TGI in [6] is above 100 µM; in [8], 61.3 µM.
On to `Cc1cc(NC2=NCCO2)c2c(c1C)CCCC2`, for which the TGI was above 100 µM in [1]; above 100 µM in [2]; above 100 µM in test [3]; above 100 µM in test [10]; 54.7 µM in test [4]; 95.3 µM in [5]. Also, the TGI in [6] was determined as 32 µM; in test [7], 29 µM; in [9] it was 63 µM.
Consider `CC(NC(=O)C(C)C(=O)NCc1ccc(C(F)(F)F)cc1)C(N)=O` (centres undefined), for which the TGI in [1], in test [2], in test [3], in test [4], in test [5] and in test [9] was above 100 µM in each case.
As for `CC(C)(C)OC(=O)NC(CCCCNC(=O)OCc1ccccc1)C(=O)NC(CCCCNC(=O)OCc1ccccc1)C(=O)ON1C(=O)CCC1=O` (centres undefined), the TGI in [1], in test [2], in test [5], in [6] and in test [7] was above 100 µM throughout.
As to `Cc1ccc(O)c(Cc2nc3ccccc3nc2-c2cccc(Br)c2)c1`, the TGI is above 100 µM in test [1]; above 100 µM in [2]; above 100 µM in test [3]; above 100 µM in test [10]; above 100 µM in test [4]; 84.7 µM in [5]. Also, the TGI in test [6], in test [8] and in test [9] was above 100 µM each time.
In the case of `NCCCn1c2c(c3ccc([N+](=O)[O-])cc3c1=O)C(=O)c1cc3c(cc1-2)OCO3`, the GI50 was below 0.01 µM in test [3], below 0.01 µM in [5], 1.43 µM in [6] and 0.886 µM in test [8]. Moreover, the TGI in [5] was above 100 µM; in [6], above 100 µM; in test [8], 3.21 µM.
`O=C(c1ccc(Cl)cc1)N(C(=S)N1CCN(c2ccccn2)CC1)c1ccccc1`: the TGI in test [2], in test [3], in [10], in test [4], in test [5] and in test [6] was above 100 µM each time. Further, the TGI in [8] and in test [9] was above 100 µM each time.
For the molecule `CC(=O)OCC1OC(OCC2OC(N3C(=S)N[C@H]([C@@H](O)[C@H](O)[C@H](O)CO)[C@H]3O)C(OC(C)=O)C(OC(C)=O)C2OC(C)=O)C(OC(C)=O)C(OC(C)=O)C1OC(C)=O` (some centres undefined), the TGI in test [2], in test [3], in test [10], in test [4], in [5] and in [6] was above 100 µM throughout. Further, the TGI in test [7], in test [8] and in test [9] was above 100 µM throughout.

The values are drawn from PubChem BioAssay (NCI).
